Patent publication US20230023092A1, “TREATMENT OF DEPRESSION AND OTHER VARIOUS DISORDERS WITH PSILOCYBIN” (COMPASS […], priority 2019, published 2023)
≈ marks a conversion by molar mass, not a printed value.

Legend:
healthy subjects [1] = assay: Reading the Mind in the Eyes Test (RMET); assay type: in vivo, human
Source text: In some embodiments, Reading the Mind in the Eyes Test (RMET) is utilized to evaluate the safety and/or efficacy of psilocybin. The RMET has 36 items, in which subjects are presented with a photograph of the eyes region of the face and must choose 1 of 4 adjectives or phrases to describe the mental state of the person pictured. A definition handout is provided at the beginning of the task and a practice item precedes the first trial.
The Pictorial Empathy Test (PET), Reading the Mind in the Eyes Test (RMET), Scale of Social Responsibility (SSR), Social Value Orientation (SVO), and Toronto Empathy Questionnaire (TEQ) were performed. Table 20 summarizes the results of the mixed model for repeated measures (MMRM) analysis for each of the aforementioned social cognition panel scales measured on Day 7 and Day 84 after study drug administration.

[2] = Solubility and hygroscopicity of psilocybin (Polymorph A or A′); assay type: physicochemical; conditions: in Water; form Polymorph A or A′
Source text: In some embodiments, the psilocybin of the disclosure in the form Polymorph A or A′ has the general properties illustrated in Table D.

healthy subjects [3] = assay: Five-Dimensional Altered States of Consciousness (5D-ASC) questionnaire; assay type: in vivo, human
Source text: In some embodiments, the Five Dimension Altered States of Consciousness questionnaire (5D-ASC) is utilized to evaluate the safety and/or efficacy of psilocybin. […] The 5 dimensions include oceanic boundlessness, anxious ego dissolution, visionary restructuralization, auditory alterations and reduction of vigilance.

[4] = Psilocybin 10 mg, Post-Treatment Day 0, LS mean
[5] = Psilocybin 10 mg-Placebo, Post-Treatment Day 0
[6] = Psilocybin 25 mg, Post-Treatment Day 0, LS mean

**Q.** For CN(C)CCc1c[nH]c2cccc(OP(=O)(O)O)c12 [Psilocybin, psilocybin], which “RMET change from baseline (LS mean)” value (healthy subjects [1]; Day 7, psilocybin 10 mg) is on record?
**A.** 0.4

**Q.** And the “RMET change from baseline, LS mean difference” value (healthy subjects [1]; Day 7, psilocybin 10 mg - placebo)?
**A.** 0.1

**Q.** What about the “RMET change from baseline (LS mean)” value (healthy subjects [1]; Day 7, psilocybin 25 mg) of the same molecule?
**A.** 0.4

**Q.** And the “RMET change from baseline, LS mean difference” value (healthy subjects [1]; Day 7, psilocybin 25 mg - 10 mg)?
**A.** 0.0

**Q.** What about the “RMET change from baseline, LS mean difference” value (healthy subjects [1]; Day 7, psilocybin 25 mg - placebo) of the same molecule?
**A.** 0.2

**Q.** What about the “RMET change from baseline (LS mean)” value (healthy subjects [1]; Day 84, psilocybin 10 mg) of the same molecule?
**A.** 0.1

**Q.** What about the “RMET change from baseline, LS mean difference” value (healthy subjects [1]; Day 84, psilocybin 10 mg - placebo) of the same molecule?
**A.** 0.2

**Q.** What about the “RMET change from baseline (LS mean)” value (healthy subjects [1]; Day 84, psilocybin 25 mg) of the same molecule?
**A.** 0.4

**Q.** And the “RMET change from baseline, LS mean difference” value (healthy subjects [1]; Day 84, psilocybin 25 mg - 10 mg)?
**A.** 0.3

**Q.** What about the “RMET change from baseline, LS mean difference” value (healthy subjects [1]; Day 84, psilocybin 25 mg - placebo) of the same molecule?
**A.** 0.5

**Q.** And the solubility [2]?
**A.** ~15 mg/mL (≈ 52.8 mM)

**Q.** And the “5D-ASC Anxiety, Mean” value (healthy subjects [3]; [4])?
**A.** 15.7

**Q.** What about the “5D-ASC Audio-visual synaesthesia, Mean” value (healthy subjects [3]; [4]) of the same molecule?
**A.** 74.7

**Q.** And the “5D-ASC Auditory alteration, Mean” value (healthy subjects [3]; [4])?
**A.** 20.3

**Q.** What about the “5D-ASC Blissful state, Mean” value (healthy subjects [3]; [4]) of the same molecule?
**A.** 59.1

**Q.** What about the “5D-ASC Changed meaning of percepts, Mean” value (healthy subjects [3]; [4]) of the same molecule?
**A.** 46.6

**Q.** And the “5D-ASC Complex imagery, Mean” value (healthy subjects [3]; [4])?
**A.** 53.0

**Q.** What about the “5D-ASC Disembodiment, Mean” value (healthy subjects [3]; [4]) of the same molecule?
**A.** 52.7

**Q.** What about the “5D-ASC Dread of ego dissolution, Mean” value (healthy subjects [3]; [4]) of the same molecule?
**A.** 21.7

**Q.** What about the “5D-ASC Elementary imagery, Mean” value (healthy subjects [3]; [4]) of the same molecule?
**A.** 76.5

**Q.** And the “5D-ASC Experience of unity, Mean” value (healthy subjects [3]; [4])?
**A.** 54.4

**Q.** What about the “5D-ASC Impaired control and cognition, Mean” value (healthy subjects [3]; [4]) of the same molecule?
**A.** 27.9

**Q.** And the “5D-ASC Insightfulness, Mean” value (healthy subjects [3]; [4])?
**A.** 53.9

**Q.** What about the “5D-ASC Oceanic boundlessness, Mean” value (healthy subjects [3]; [4]) of the same molecule?
**A.** 55.7

**Q.** And the “5D-ASC Spiritual experience, Mean” value (healthy subjects [3]; [4])?
**A.** 48.7

**Q.** And the “5D-ASC Vigilance reduction, Mean” value (healthy subjects [3]; [4])?
**A.** 35.3

**Q.** And the “5D-ASC Visual restructuralisation, Mean” value (healthy subjects [3]; [4])?
**A.** 59.1

**Q.** And the “5D-ASC Anxiety, Mean difference” value (healthy subjects [3]; [5])?
**A.** 14.6

**Q.** What about the “5D-ASC Audio-visual synaesthesia, Mean difference” value (healthy subjects [3]; [5]) of the same molecule?
**A.** 66.6

**Q.** And the “5D-ASC Auditory alteration, Mean difference” value (healthy subjects [3]; [5])?
**A.** 18.6

**Q.** And the “5D-ASC Blissful state, Mean difference” value (healthy subjects [3]; [5])?
**A.** 50.9

**Q.** And the “5D-ASC Changed meaning of percepts, Mean difference” value (healthy subjects [3]; [5])?
**A.** 44.4

**Q.** And the “5D-ASC Complex imagery, Mean difference” value (healthy subjects [3]; [5])?
**A.** 48.6

**Q.** What about the “5D-ASC Disembodiment, Mean difference” value (healthy subjects [3]; [5]) of the same molecule?
**A.** 45.8

**Q.** What about the “5D-ASC Dread of ego dissolution, Mean difference” value (healthy subjects [3]; [5]) of the same molecule?
**A.** 20.5

**Q.** And the “5D-ASC Elementary imagery, Mean difference” value (healthy subjects [3]; [5])?
**A.** 63.6

**Q.** And the “5D-ASC Experience of unity, Mean difference” value (healthy subjects [3]; [5])?
**A.** 47.1

**Q.** And the “5D-ASC Impaired control and cognition, Mean difference” value (healthy subjects [3]; [5])?
**A.** 26.2

**Q.** And the “5D-ASC Insightfulness, Mean difference” value (healthy subjects [3]; [5])?
**A.** 47.6

**Q.** What about the “5D-ASC Oceanic boundlessness, Mean difference” value (healthy subjects [3]; [5]) of the same molecule?
**A.** 47.7

**Q.** What about the “5D-ASC Spiritual experience, Mean difference” value (healthy subjects [3]; [5]) of the same molecule?
**A.** 44.6

**Q.** What about the “5D-ASC Vigilance reduction, Mean difference” value (healthy subjects [3]; [5]) of the same molecule?
**A.** 20.0

**Q.** And the “5D-ASC Visual restructuralisation, Mean difference” value (healthy subjects [3]; [5])?
**A.** 52.6

**Q.** What about the “5D-ASC Anxiety, Mean” value (healthy subjects [3]; [6]) of the same molecule?
**A.** 32.4

**Q.** And the “5D-ASC Audio-visual synaesthesia, Mean” value (healthy subjects [3]; [6])?
**A.** 75.4

**Q.** What about the “5D-ASC Auditory alteration, Mean” value (healthy subjects [3]; [6]) of the same molecule?
**A.** 30.7

**Q.** And the “5D-ASC Blissful state, Mean” value (healthy subjects [3]; [6])?
**A.** 61.9

**Q.** What about the “5D-ASC Changed meaning of percepts, Mean” value (healthy subjects [3]; [6]) of the same molecule?
**A.** 46.1
